# Where a name gives a salt, the structure may show the parent alone.
# Legend:
# [1] = system: ileal tissue; assay: TimeSTAT: expression of immunological markers in ileal tissue by qPCR; assay type: in vivo, C57BL/6J mice; conditions: 20 weeks of age
# Description: C57BL/6J (Jackson Labs, Bar Harbor, Me.) mice either received no antibiotics (control, females n=5, males n=5) or continuous STAT penicillin starting at birth (STATb, females n=4, males n=5), or at weaning at 4 weeks (STATw, females n=5, males n=5). Mice were weaned at 4 weeks onto normal chow (13.2% fat, 5053 PicoLab Rodent Diet 20, LabDiet, Brentwood, Mo.).
# Both STATw and STATb remained on lifelong STAT after initial exposure. Mice were sacrificed at 20 weeks of age. The terminal[1 cm] ileum without Peyer's Patches [TI-] was collected for gene expression analysis by qPCR.
# (§1) Total RNA was extracted from mouse tissues using the RNeasy Mini Kit (Qiagen), according to the manufacturer's instructions. Total RNA was reverse transcribed to cDNA using the Verso™ cDNA Synthesis Kit (Thermo Scientific). To generate standards for expression analysis of each target gene, the cDNA region of interest was PCR-amplified and the PCR product was cloned into pGEM-T easy (Promega). qPCR was performed with LightCycler 480 SYBR Green I Master mix (Roche) and run in a LightCycler 480 system (Roche). Target mRNA was normalized to GAPDH mRNA as an internal control in each sample.
# Both STATw and STATb remained on lifelong STAT after initial exposure. Expression of immunological markers in ileal tissue was measured by qPCP at 20 weeks of age in both female and male mice.
# [2] = system: 547 genes related to immunology in ileal tissue; assay: Ileal gene expression profiling via Nanostring Immunology Panel, STAT; assay type: in vivo, C57BL6J mice; conditions: for Significant Changes Down (ileal Nanostring) / Significant Changes Total (ileal Nanostring) / Significant Changes Up (ileal Nanostring): 8-week old mice
# Procedure: RNA was extracted from ileal tissue using the miRNeasy mini kit (Qiagen, Redwood City, Calif., USA) at 8 weeks of age and the expression levels of 547 genes related to immunology were measured by nCounter GX Mouse Immunology Kit (Nanostring Technologies, Seattle, Wash., USA). Significant differences between treatment and control were determined by t-test. For functional characterization, the significant changes were analyzed by Ingenuity Pathway Analysis (Qiagen, Redwood City, Calif.).
# Specifically, STAT decreased 111 and 74 genes and increased only 1 and 7 genes in male and female mice, respectively, with numerous consistencies across gender (FIG. 10A-C and Table 2).
# [3] = system: splenic CD4+ and CD8+ T-cells; assay: NOD: flow cytometry of IFNγ-producing splenic T-cells; assay type: in vivo; conditions: 6-week old male NOD mice, n=7, vs controls, p<0.01
# Procedure: Leukocytes were isolated from spleens harvested from 6-week old control (n=7) and PAT-treated (n=7) NOD mice. Flow cytometric analysis was performed to assess T-cell cytokine production. Mann-Whitney U-test, ** p<0.01. Bar heights represent the means and error bars represent the standard deviations. […] Taxa with at least two significant timepoints (indicated by *) are illustrated at the phylum, genus, and species level. Dark grey and light grey coloration indicates enrichment at the specified time point in control and in PAT specimens, respectively.
# [4] = system: terminal ileum; assay: PAT: ileal expression by qPCR in 6-week mice; assay type: in vivo, C57BL/6 mice; conditions: 6-week male mice, 3 pulses, vs control
# Procedure: as §1
# C57BL/6 mice were fed a standard diet after weaning, and exposed to 3 pulses of therapeutic dose antibiotics (Amoxicillin or Tylosin), or no antibiotics, via their drinking water, all before 6 weeks of age. Mice were sacrificed at 6 weeks of age.
# The distal ileum (1 cm) without Peyer's Patches was collected from each mouse for RNA extraction and kept in RNAlater (Ambion) overnight at 4° C. Samples were stored at −80° C. until RNA extraction was performed.
# Panel A: Mice were exposed to 3 pulses of antibiotics (Amoxicillin or Tylosin), or no antibiotics, via breast milk or drinking water at the indicated time points. Panel B: Male mice, including 5 Control, 4 Amoxicillin, and 6 Tylosin, were fed a normal diet. They were sacrificed at 6 weeks of age and the terminal[1 cm] ileum without Peyer's Patches [TI-] was collected.
# Ileal expression of T-bet and IFN-γ [Th1], GATA3 and IL-4 [Th2], Foxp3, and TGFβ1 [Treg], and RORγt, IL-17A, and IL-17F [Th17] (Control n=5, Amoxicillin n=4, Tylosin n=6) was quantitated with qPCR and normalized by GAPDH expression. Expression of T-bet and IFNγ [Th1] (p<0.05) and IL-17A and IL-17F [Th17] […] Foxp3 and RORγt were lower in Tylosin than control. This example extends the earlier observation that continuous antibiotics affect ileal immune cell populations and effectors by showing that pulses are sufficient to produce similar effects.
smiles,measurement,setting,value
"CC1(C)S[C@@H]2[C@H](NC(=O)COc3ccccc3)C(=O)N2[C@H]1C(=O)[O-].[K+] [STAT, penicillin VK]",ileal expression of Th17 transcription factor (RORγT),"[1]; female mice, STAT from weaning or birth vs control",significant reductions
same,ileal expression of J-chain,"[1]; female mice, STAT vs control",significant reductions
same,ileal expression of Reg3γ,"[1]; female mice, STAT vs control",significant reductions
same,ileal expression of SAA1/SAA2,"[1]; female mice, STAT vs control",significant reductions
same,ileal expression of SSA3,"[1]; female mice, STAT vs control",significant reductions
same,ileal expression of cytokine,"[1]; female mice, STAT vs control",significant reductions
same,ileal expression of cytokine TH-17A,"[1]; female mice, STAT vs control",significant reductions
same,ileal expression of defensin β1 (Defb1),"[1]; female mice, STAT vs control",significant reductions
same,ileal expression of polymeric Ig receptor (pIgR),"[1]; female mice, STAT vs control",significant reductions
same,ileal expression of J-chain,"[1]; male mice, STAT vs control",lacked differences
same,ileal expression of RORγt,"[1]; male mice, STAT vs control",lacked differences
same,ileal expression of pIgR,"[1]; male mice, STAT vs control",lacked differences
same,Significant Changes Down (ileal Nanostring),[2]; STAT-Female vs control,74
same,Significant Changes Total (ileal Nanostring),[2]; STAT-Female vs control,81
same,Significant Changes Up (ileal Nanostring),[2]; STAT-Female vs control,7
same,Significant Changes Down (ileal Nanostring),[2]; STAT-Male vs control,111
same,Significant Changes Total (ileal Nanostring),[2]; STAT-Male vs control,112
same,Significant Changes Up (ileal Nanostring),"[2]; STAT-Male vs control, n=4 per group, t-test <0.05",1
same,"Significant Changes Down, shared",[2]; Shared: STAT-F + Recip-F,1
same,"Significant Changes Total, shared",[2]; Shared: STAT-F + Recip-F,1
same,"Significant Changes Up, shared",[2]; Shared: STAT-F + Recip-F,0
same,"Significant Changes Down, shared",[2]; Shared: STAT-M + Recip-F,3
same,"Significant Changes Total, shared",[2]; Shared: STAT-M + Recip-F,3
same,"Significant Changes Up, shared",[2]; Shared: STAT-M + Recip-F,0
same,"Significant Changes Down, shared",[2]; Shared: STAT-M + STAT-F,37
same,"Significant Changes Total, shared",[2]; Shared: STAT-M + STAT-F,37
same,"Significant Changes Up, shared",[2]; Shared: STAT-M + STAT-F,0
"CC[C@H]1OC(=O)C[C@@H](O)[C@H](C)[C@@H](O[C@@H]2O[C@H](C)[C@@H](O[C@H]3C[C@@](C)(O)[C@@H](O)[C@H](C)O3)[C@H](N(C)C)[C@H]2O)[C@@H](CC=O)C[C@@H](C)C(=O)/C=C/C(C)=C/[C@@H]1CO[C@@H]1O[C@H](C)[C@@H](O)[C@@H](OC)[C@H]1OC [Tylosin, Tylosin tartrate]",proportion of IFNγ-producing splenic CD4+ T-cells,[3],increased
same,proportion of IFNγ-producing splenic CD8+ T-cells,[3],increased
same,ileal expression of Foxp3,[4],lower
same,ileal expression of RORγt,[4],lower
same,ileal expression of IFNγ [Th1],[4]; p<0.05,significantly lower
same,ileal expression of IL-17A [Th17],[4]; p<0.05,significantly lower
same,ileal expression of IL-17F [Th17],[4]; p<0.05,significantly lower
same,ileal expression of T-bet [Th1],[4]; p<0.05,significantly lower
